Measured values published in article PMC6429710, “Structure–activity relationships in a series of antiplasmodial thieno[2,3-b]pyridines” (Malaria Journal, 2019).
≈ marks a conversion by molar mass, not a printed value. Read-outs that look alike come from different tables or passages of the source.

How the values were obtained:
HEK293T cells = test: Cytotoxicity assay on HEK293 cells (PrestoBlue viability); format: cell-based, human
Procedure: HEK293T cells were seeded into a solid black flat bottom 96 well plate (2.5 × 10^4 cells/well) in 200 μL Dulbecco Modified Eagle Medium (DMEM) supplemented with 10% fetal bovine serum and 1% Pen/Strep (final concentration of 100 U/mL Penicillin and 100 μg/mL Streptomycin). Cells were incubated at 37 °C under 5% CO2. After 18 h the supernatant was removed and fresh DMEM containing serial dilutions of compounds was added. Compounds were solubilized in DMSO (final DMSO concentration in HEK293T culture was 0.5%.) Wells containing 0.5% DMSO served as a negative control. Plates were incubated for further 48 h at 37 °C under 5% CO2. To monitor cell viability the supernatant was removed and cells were incubated with 200 μL 10% PrestoBlue (Invitrogen) in PBS at 37 °C. After 30 min fluorescence (λex = 560 nm, λem = 590 nm) was measured in an EnVision multilable plate reader (Perkin Elmer, integration time 0.1 s/well). Data points were plotted into Graphpad Prism, normalized to the DMSO control and IC50 values were calculated using nonlinear regression.

PfGSK-3 = target: T1, PfGSK-3 (Plasmodium falciparum, UniProt O77344); test: biochemical; format: biochemical; conditions: for IC50: 6 µM ATP, mean of three determinations, range in brackets, read-out: IC50 [µM], PfGSK-3 (Kinase Glo Plus)
T1 construct: 6xHis; made in house; host or cells: Escherichia coli C41
T1 sequence (O77344 1-440): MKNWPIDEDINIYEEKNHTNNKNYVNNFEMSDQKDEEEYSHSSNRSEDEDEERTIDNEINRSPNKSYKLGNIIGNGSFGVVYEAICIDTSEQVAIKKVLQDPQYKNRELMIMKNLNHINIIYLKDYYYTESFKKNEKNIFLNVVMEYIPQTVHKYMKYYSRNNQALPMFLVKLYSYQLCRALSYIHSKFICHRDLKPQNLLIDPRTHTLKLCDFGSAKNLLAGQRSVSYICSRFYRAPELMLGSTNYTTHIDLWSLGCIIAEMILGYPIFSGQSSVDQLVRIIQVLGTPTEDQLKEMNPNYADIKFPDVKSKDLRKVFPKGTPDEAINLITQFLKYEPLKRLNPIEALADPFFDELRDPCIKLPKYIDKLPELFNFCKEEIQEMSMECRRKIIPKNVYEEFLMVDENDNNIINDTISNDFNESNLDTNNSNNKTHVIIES
Procedure: PfGSK-3 was cloned into pOPIN F expression vector [41] using ligation independent cloning (InFusion, Takara Clontech). Expression vector was transformed into Escherichia coli C41 and expression of recombinant PfGSK3-6xHis was induced by incubation with 1 mM IPTG at 16 °C overnight.
Kinase activity was measured using Kinase-Glo Plus Luminescent Kinase Assay (Promega). 20 ng recombinant GSK-3 were incubated for 30 min at 30 °C in the presence of 12 μM GS-1 peptide substrate ([…]pSEDEEE, pS stands for phosphorylated serine, Biaffin GmbH & Co KG/proteinkinase.de) and 6 μM ATP (ultra pure, Promega) in a total volume of 5 μL kinase reaction buffer (40 mM Tris/HCl pH 7.5; 20 mM MgCl2; 0.1 mg/mL BSA). Kinase reaction mix was transferred to a solid white 384 well plate (NUNC, Thermo Scientific) and kinase reaction was stopped by adding 5 μL RT Kinase-Glo reagent. After 10 min luminescence was measured in an EnVision multilabel plate reader (Perkin Elmer, integration time 0.5 s/well). […] All samples were normalized to a negative control (reaction without kinase). Data points were plotted into Graphpad Prism, normalized to a DMSO control and IC50 values were calculated using nonlinear regression.

HsGSK-3 = HsGSK-3 (Homo sapiens, UniProt P49841); test: Kinase-Glo Plus assay for inhibition of HsGSK-3; format: biochemical; conditions: 6 µM ATP; mean of three determinations, range in brackets
Procedure: Kinase reaction mix was transferred to a solid white 384 well plate (NUNC, Thermo Scientific) and kinase reaction was stopped by adding 5 μL RT Kinase-Glo reagent. After 10 min luminescence was measured in an EnVision multilabel plate reader (Perkin Elmer, integration time 0.5 s/well). […] All samples were normalized to a negative control (reaction without kinase). Data points were plotted into Graphpad Prism, normalized to a DMSO control and IC50 values were calculated using nonlinear regression.

[1] = Kinetic solubility by laser nephelometry; format: physicochemical; conditions: kinetic from dmso stock, aqueous phosphate buffer pH 7.4, 1% DMSO, 25 °C, mean ± standard deviation, read-out: S0 pH 7.4, exp (kinetic solubility)
Procedure: Kinetic solubility indicates the solubility of the most rapidly precipitating form. Kinetic solubilities of 1 and 4h were determined by laser nephelometry using the […] nephelometer (BMG LabTech, Ortenberg, Germany) and F-bottom transparent 96-well plates. The instrument uses red laser light (635 nm, 80% intensity), which passes through the 96-well plate and which is scattered by turbid suspensions. Each compound was measured six times at 25 °C by preparing three independent stock solutions in concentrations of 5 to 10 mM in DMSO. From each stock solution two independent dilution series were prepared. Based on preliminary experiments, dilution concentrations were chosen such that at least five to six concentrations below and above the expected point of precipitation were recorded. To the 96-well plate containing 198 μL aqueous phosphate buffer at pH 7.4, 2 μL of each dilution sample in DMSO was added and shaken for 10 s. at 700 rpm (double orbital). […] The pH was adjusted by adding sulfuric acid. First, the plates were scanned without content to quantify the background, which was later subtracted from the obtained values of each individual well. As blank, 2 μL of neat DMSO was added to the phosphate buffer. Close to the point of precipitation, particle concentration can be assumed to be proportional to the intensity of scattered light. […]

[2] = system: asexual erythrocytic stages of transgenic NF54-luc P. falciparum; set-up: method as in PMID 23214499; conditions: prototype compound 1; read-out: IC50 [µM], PfNF54-Luc; cited from earlier work
[3] = system: asexual erythrocytic stages of transgenic NF54-luc P. falciparum; test: Luciferase-based viability screening for antiplasmodial activity; format: cell-based, Plasmodium falciparum; conditions: for % inhibition ± SD, PfNF54-Luc at 3 µM: 3 µM test compound, luciferase readout; for IC50: read-out: IC50 [µM], PfNF54-Luc
Procedure: For the luciferase-based viability assays, asexual erythrocytic stages of transgenic NF54-luc P. falciparum were used. These parasites constitutively express high luciferase levels. The parasites were cultured as described previously. Parasite cultures with parasitaemia of 0.5–1% were dispensed in triplicate into white 96-well flat-bottom plates (each well contains 250 µL) (NUNC, Roskilde, Denmark) and incubated in the presence of 3 µM test compounds for 48 h (37 °C, 90% N2, 5% CO2, and 5% O2). 0.01% DMSO was included in the untreated infected RBC cultures as negative control, since the compounds stock initially was diluted in DMSO and each treatment well also contained 0.01% DMSO. Subsequently, 100 µL RPMI1640 media was removed from each well and a 100 µL volume of the Bright-Glo® substrate solution was added to each well. The resultant cleavage product of the reaction, light, was measured using a […] luminometer (Thermo), to ascertain viable parasites. Untreated cultures were used as negative controls and to calculate the inhibition rate (0% inhibition of parasite growth). Experiments were performed in triplicate and were repeated as a whole at least twice. Blasticidin (Sigma-Aldrich, St. Louis, MO, USA), used for selection of transfected parasites, was included as a positive control on each plate and gave > 90% inhibition of parasite growth at concentration 2 µg/mL. […] For active compounds IC50 values were determined from dose–response curves. Calculation of parasite growth inhibition, of the IC50 values and statistical analysis were carried out using GraphPad Prism Version 6.0b (GraphPad Software, Inc. San Diego, CA).

[4] = from dose-response curves, 48 h

Sequence of HsGSK-3 (P49841 whole entry): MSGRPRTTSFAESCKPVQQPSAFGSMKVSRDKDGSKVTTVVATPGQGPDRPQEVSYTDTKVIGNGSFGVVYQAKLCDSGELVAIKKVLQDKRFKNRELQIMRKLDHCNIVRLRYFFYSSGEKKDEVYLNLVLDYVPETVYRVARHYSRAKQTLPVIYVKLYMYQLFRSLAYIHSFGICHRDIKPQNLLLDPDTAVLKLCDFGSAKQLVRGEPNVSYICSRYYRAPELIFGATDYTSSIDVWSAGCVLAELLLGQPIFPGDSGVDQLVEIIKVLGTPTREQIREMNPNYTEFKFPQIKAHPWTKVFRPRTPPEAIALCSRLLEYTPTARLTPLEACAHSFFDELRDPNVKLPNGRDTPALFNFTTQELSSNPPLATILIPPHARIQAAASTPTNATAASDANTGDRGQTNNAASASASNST

Structure (SMILES) | % inhibition ± SD, PfNF54-Luc at 3 µM ([3]; 48 h) [%] | IC50 [3, 4] [µM] | also measured
N#Cc1c(N)nc2sc(C(=O)c3cccc(Cl)c3)c(N)c2c1-c1ccccc1Cl [compound 1] | – | – | SI (selectivity index) = IC50 HEK293T/IC50 PfNF54-Luc (HEK293T cells; HEK293T versus PfNF54-Luc): 6.4; IC50 (HEK293T cells; Homo sapiens, HEK-293T, cell viability, 48 h, mean of six determinations, range in brackets): 35.2 µM; IC50 (PfGSK-3): 0.24 µM; selectivity index plasmodial versus human GSK-3 (PfGSK-3; Kinase Glo Plus assay, PfGSK-3 versus HsGSK-3): 38; IC50 (HsGSK-3): 9.08 µM; solubility kinetic at 10 s [1]: 1.5 ± 0.3 µM (≈ 0.659 µg/mL); IC50 [2]: 5.5 µM
N#Cc1c(N)nc2sc(C(=O)c3cccc(Cl)c3)c(N)c2c1-c1ccc(N2CCCCC2)cc1Cl [4d] | 39.1 ± 1.1 | 5 | –
N#Cc1c(N)nc2sc(C(=O)c3cccc(Cl)c3)c(N)c2c1-c1ccc(OCCO)cc1Cl [3d] | 25.6 ± 3.3 | 20 | –
CN(CC[C@H](N)CC(=O)N[C@H]1C=C[C@H](n2ccc(N)nc2=O)O[C@@H]1C(=O)O)C(=N)N [BS, Blasticidin, reference compound] | 99.3 ± 0.7 | – | inhibition of parasite growth (positive control) ([3]; 2 µg/mL, 48 h): > 90%
N#Cc1c(N)nc2sc(C(=O)c3cccc(Cl)c3)c(N)c2c1-c1ccc(O)cc1Cl [2e] | 0.2 ± 2.5 | – | –
Cc1ccc(-c2c(C#N)c(N)nc3sc(C(=O)c4cccc(Cl)c4)c(N)c23)c(Cl)c1 [2d] | 12.4 ± 2.4 | – | –
CN(CCNC(=O)OC(C)(C)C)c1ccc(-c2c(C#N)c(N)nc3sc(C(=O)c4cccc(Cl)c4)c(N)c23)c(Cl)c1 [4f] | 67.1 ± 2.7 | 2.5 | –
N#Cc1c(N)nc2sc(C(=O)c3cccc(Cl)c3)c(N)c2c1-c1ccc(OCC(=O)O)cc1Cl [3g] | 31.3 ± 1.1 | – | –
N#Cc1c(N)nc2sc(C(=O)c3cccc(Cl)c3)c(N)c2c1-c1ccc(OCC(O)CO)cc1Cl (centres unmarked) [3f] | 14.7 ± 1.8 | – | –
N#Cc1c(N)nc2sc(C(=O)c3cccc(Cl)c3)c(N)c2c1-c1ccc(F)cc1Cl [2b] | 28.1 ± 3.3 | 6.1 | –
CCN(CC)c1ccc(-c2c(C#N)c(N)nc3sc(C(=O)c4cccc(Cl)c4)c(N)c23)c(Cl)c1 [(+)4b] | – | – | inhibition at 3 µM ([3]; Plasmodium falciparum, NF54, 48 h, read-out: % inhibition ± SD, PfNF54-Luc at 3 µM): 73 ± 1.2%; IC50 ([3]; Plasmodium falciparum, NF54, 48 h): 1.1 µM; IC50 (PfGSK-3): 39.6 µM; IC50 (HsGSK-3): > 100 µM
N#Cc1c(N)nc2sc(C(=O)c3cccc(Cl)c3)c(N)c2c1-c1ccc(Cl)cc1Cl [2a] | 25.7 ± 3.5 | 6.2 | –
CN(CCN)c1ccc(-c2c(C#N)c(N)nc3sc(C(=O)c4cccc(Cl)c4)c(N)c23)c(Cl)c1.Cl [4i] | 8.1 ± 3.3 | – | –
CCN(CC)c1ccc(-c2c(C#N)c(N)nc3sc(C(=O)c4cccc(Cl)c4)c(N)c23)c(Cl)c1 [(−)4b] | – | – | IC50 (PfGSK-3): > 100 µM
COc1ccc(-c2c(C#N)c(N)nc3sc(C(=O)c4cccc(Cl)c4)c(N)c23)c(Cl)c1 [3a] | 33.2 ± 3.2 | 12.2 | –
Cl.N#Cc1c(N)nc2sc(C(=O)c3cccc(Cl)c3)c(N)c2c1-c1ccc(N2CCNCC2)cc1Cl [4j] | 75.7 ± 1.5 | 1.5 | –
CN(C)c1ccc(-c2c(C#N)c(N)nc3sc(C(=O)c4cccc(Cl)c4)c(N)c23)c(Cl)c1 [4a] | 29.9 ± 5.6 | 5.7 | –
N#Cc1c(N)nc2sc(C(=O)c3cccc(Cl)c3)c(N)c2c1-c1ccc(N2CCCC2)cc1Cl [4c] | 33.0 ± 2.4 | – | –
N#Cc1c(N)nc2sc(C(=O)c3cccc(Cl)c3)c(N)c2c1-c1ccc(N2CCOCC2)cc1Cl [4e] | 20.2 ± 4.8 | – | –
CCOc1ccc(-c2c(C#N)c(N)nc3sc(C(=O)c4cccc(Cl)c4)c(N)c23)c(Cl)c1 [3b] | 14.5 ± 1.3 | – | –
N#Cc1c(N)nc2sc(C(=O)c3cccc(Cl)c3)c(N)c2c1-c1ccc(OCc2ccccc2)cc1Cl [3c] | 12.8 ± 4.9 | – | –
CC(C)(C)OC(=O)N1CCN(c2ccc(-c3c(C#N)c(N)nc4sc(C(=O)c5cccc(Cl)c5)c(N)c34)c(Cl)c2)CC1 [4g] | 42.1 ± 2.9 | 3.8 | –
